Assays:
[1] = test system: functional sodium and potassium channels in hiPSC-neurons; test: Voltage-clamp recording of Na+ and K+ currents in hiPSC-derived neurons; assay type: cell-based, human; conditions: depolarizing voltage steps; hiPSC-neurons after 8 weeks of maturation
Method: (§1) Transverse brain slices of 350 μm thickness were prepared at 8 weeks after differentiated hiPSC cells injection using a vibratome (Leica VT1200S). Slices were incubated in artificial cerebrospinal fluid (ACSF) containing (in mM): NaCl 125, KCl 2.5, MgSO4 1, NaH2PO4 1.25, NaHCO3 26, CaCl2 2, and D-glucose 10. Slices were maintained in ACSF and continuously bubbled with 95% O2 and 5% CO2, first at 34° C. for 30 min, and then at room temperature. A single slice was transferred into a submerged recording chamber and perfused constantly with carbogen-equilibrated ACSF at a rate of 2 ml/min Injected human neurons expressing RFP were visualized under a 40× water immersion objective by fluorescence and DIC optics (Carl Zeiss, Germany). […] Resting membrane potential (RMP) was recorded in current clamp mode at 0 pA immediately after establishing whole-cell configuration. Series resistance (Rseries) and input resistance (Rin) were calculated from a 5 mV pulse and monitored throughout the experiment. […]
(§2) For voltageclamp experiments, the membrane potential was typically held at −70 mV. […] Data were acquired by PatchMaster software (HEKA Elektronik, Lambrech, Germany) Na^+ and K^+ currents and action potentials were analyzed using Clampfit 10.5 software (Molecular devices, Palo Alto, Calif., USA). Spontaneous synaptic events were analyzed using MiniAnalysis software (Synaptosoft, Decatur, Ga., USA). […]

hiPSC-derived neurons = test: Patch-clamp recording of spontaneous synaptic events in hiPSC-derived neurons; assay type: cell-based, human; conditions: 10 μM; hiPSC-derived neurons in slices and in cultures; applied with Bic
Method: as §1, §2

## CC[N+](CC)(CC)CC [TEA]
[1]
  voltage-dependent inward and outward currents, sensitivity: selectively sensitive

## N#Cc1cc2c(cc1[N+](=O)[O-])=NC(=O)C(=O)N=2 [CNQX, 6-Cyano-7-nitroquinoxaline-2,3-dione]
hiPSC-derived neurons
  spontaneous synaptic events: blocked

From patent publication US20190119645A1, “GENERATION OF ADULT-LIKE HEART MUSCLE FROM HUMAN PLURIPOTENT STEM CELLS” (The Johns Hopkins University, priority 2015, published 2019)
